This is an account of results in PubChem BioAssay (NCI).

Some test systems named below: SW-620 colon; LOX IMVI melanoma; SK-MEL-28 melanoma; CCRF-CEM leukemia; DU-145 prostate; SF-295 CNS; HCT-15 colon; SK-OV-3 ovarian; NCI/ADR-RES ovarian; MCF7 breast.
Assay in all cases: NCI-60 cell line screen, 48 h

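Dose response: 5 concentrations. Exposure: 48 h. Format: 96-well plates. Endpoint: linear interpolation; highest concentration if not reached. Here, GI50 denotes the concentration required for 50% inhibition of growth. The concentration for full growth arrest is given as TGI.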

With `C[C@]12CCC3c4ccc(O)cc4CCC3C1CC[C@@]2(O)CNC(=O)/C=C/c1ccc(O)c(O)c1` (stereo not given in full), the GI50 with SW-620 colon is 9.36 µM; in the test on LOX IMVI melanoma, 2.37 µM; in the test with SK-MEL-28 melanoma it was 24.8 µM; with CCRF-CEM leukemia, 4.33 µM; in the test with DU-145 prostate, 3.29 µM; in the test on SF-295 CNS, 4.07 µM. In addition, the GI50 is 4.33 µM with HCT-15 colon, 16.7 µM with SK-OV-3 ovarian, 23.9 µM in the test on NCI/ADR-RES ovarian and 12.4 µM with MCF7 breast. Besides, the TGI is 27.2 µM in the test with SW-620 colon; 6.52 µM in the test with LOX IMVI melanoma; 59 µM in the test on SK-MEL-28 melanoma; 31.2 µM in the test with CCRF-CEM leukemia; 14.8 µM with DU-145 prostate; 22.1 µM in the test with SF-295 CNS. For the same molecule, the TGI is 16.8 µM in the test on HCT-15 colon, 34.5 µM in the test on SK-OV-3 ovarian, over 100 µM with NCI/ADR-RES ovarian and 45.4 µM in the test on MCF7 breast.

As to `COc1ccc(CCN=C2NC(=O)/C(=C/c3ccc4ncccc4c3)S2)cc1`, the GI50 in the test with SW-620 colon, with LOX IMVI melanoma, in the test with SK-MEL-28 melanoma, with CCRF-CEM leukemia, with DU-145 prostate and with SF-295 CNS was over 25 µM in each case. The GI50 with HCT-15 colon, in the test with SK-OV-3 ovarian, in the test with NCI/ADR-RES ovarian and in the test on MCF7 breast was over 25 µM throughout. The TGI in the test with SW-620 colon, with LOX IMVI melanoma, in the test with SK-MEL-28 melanoma, in the test with CCRF-CEM leukemia, with DU-145 prostate and in the test with SF-295 CNS was over 25 µM in each case. Also, the TGI with HCT-15 colon, in the test with SK-OV-3 ovarian, in the test with NCI/ADR-RES ovarian and in the test on MCF7 breast was over 25 µM each time.

`O=C(/C=C/c1ccc(O)cc1)c1ccc(O)cc1`: the TGI was 57.9 µM in the test with SW-620 colon; 28.1 µM in the test on LOX IMVI melanoma; 61.3 µM with SK-MEL-28 melanoma; over 85 µM in the test on CCRF-CEM leukemia; 99.9 µM in the test on DU-145 prostate; over 96.7 µM in the test with SF-295 CNS. Also, the TGI in the test with HCT-15 colon was 57.5 µM; with SK-OV-3 ovarian it was over 100 µM; in the test on NCI/ADR-RES ovarian it was over 63.1 µM; with MCF7 breast, over 100 µM.

In the case of `CCCCCCCCCCn1cc[n+](C)c1`, the GI50 is 3.3 µM in the test on SW-620 colon; 1.79 µM with LOX IMVI melanoma; 3.33 µM in the test with SK-MEL-28 melanoma; 0.43 µM in the test on CCRF-CEM leukemia; 5.25 µM in the test with DU-145 prostate; 1.39 µM with SF-295 CNS. Further, the GI50 is 17.9 µM in the test on HCT-15 colon, 2.62 µM in the test with SK-OV-3 ovarian, 47.4 µM in the test on NCI/ADR-RES ovarian and 1.69 µM in the test with MCF7 breast. Further, the TGI in the test with SW-620 colon is 33 µM; with LOX IMVI melanoma, 13.2 µM; in the test on SK-MEL-28 melanoma it was 15.1 µM; in the test on CCRF-CEM leukemia, 4.51 µM; in the test on DU-145 prostate, 30.7 µM; with SF-295 CNS, 8.43 µM. In addition, the TGI with HCT-15 colon was over 100 µM; in the test on SK-OV-3 ovarian, 20.9 µM; in the test on NCI/ADR-RES ovarian, over 100 µM; with MCF7 breast, 13.6 µM.

Take `COc1ccc2nc(NC(=O)CSc3nnc4n3S(=O)(=O)c3ccccc3N4c3ccccc3)sc2c1`: the GI50 in the test on SW-620 colon, in the test on LOX IMVI melanoma, in the test on SK-MEL-28 melanoma, with CCRF-CEM leukemia, in the test with DU-145 prostate and in the test on SF-295 CNS was over 100 µM throughout. Also, the GI50 in the test with HCT-15 colon, in the test with SK-OV-3 ovarian, in the test with NCI/ADR-RES ovarian and with MCF7 breast was over 100 µM throughout. The TGI in the test with SW-620 colon, in the test with LOX IMVI melanoma, with SK-MEL-28 melanoma, with CCRF-CEM leukemia, in the test on DU-145 prostate and in the test on SF-295 CNS was over 100 µM in each case. Further, the TGI in the test on HCT-15 colon, in the test with SK-OV-3 ovarian, with NCI/ADR-RES ovarian and in the test on MCF7 breast was over 100 µM throughout.

As to `COc1cc(/C(C#N)=C/c2nc3c(N4CCOCC4)nc(Cl)nc3n2C)cc(OC)c1OC`, the GI50 was under 0.01 µM in the test on SW-620 colon; under 0.01 µM in the test on LOX IMVI melanoma; 1.03 µM in the test with SK-MEL-28 melanoma; under 0.01 µM in the test on CCRF-CEM leukemia; under 0.01 µM in the test on DU-145 prostate; under 0.01 µM in the test with SF-295 CNS. The GI50 with HCT-15 colon was under 0.01 µM; in the test with SK-OV-3 ovarian it was under 0.01 µM; with NCI/ADR-RES ovarian, under 0.01 µM; in the test with MCF7 breast, under 0.0115 µM. Besides, the TGI with SW-620 colon was over 100 µM; in the test on LOX IMVI melanoma, 4.17 µM; with SK-MEL-28 melanoma it was over 64.8 µM; with CCRF-CEM leukemia, 0.668 µM; in the test with DU-145 prostate, over 94.3 µM; with SF-295 CNS it was 1.49 µM. In addition, the TGI was 6.94 µM with HCT-15 colon, 7.27 µM in the test on SK-OV-3 ovarian, 5.56 µM in the test with NCI/ADR-RES ovarian and over 32.5 µM in the test with MCF7 breast.

With `Nc1c(C(=O)Nc2cccc(C(F)(F)F)c2)sc2nc3c(cc12)CCCCC3`, the GI50 in the test on SW-620 colon is 6.42 µM; in the test on LOX IMVI melanoma, 3.59 µM; in the test with SK-MEL-28 melanoma, 3.73 µM; in the test on CCRF-CEM leukemia, 5.56 µM; with DU-145 prostate, 4.81 µM; with SF-295 CNS, 2.2 µM. Moreover, the GI50 in the test on HCT-15 colon is 10.7 µM; in the test on SK-OV-3 ovarian, 1.85 µM; with NCI/ADR-RES ovarian, 3.17 µM; with MCF7 breast it was 2.35 µM. Besides, the TGI in the test on SW-620 colon was over 100 µM; in the test on LOX IMVI melanoma, 58 µM; in the test with SK-MEL-28 melanoma, 23.6 µM; in the test with CCRF-CEM leukemia, over 100 µM; in the test on DU-145 prostate, 28.4 µM; in the test with SF-295 CNS, 12.2 µM. Also, the TGI in the test on HCT-15 colon was over 100 µM; in the test with SK-OV-3 ovarian it was 4.36 µM; in the test with NCI/ADR-RES ovarian, 22.9 µM; in the test on MCF7 breast, 13.6 µM.

Regarding `COc1cccc(-c2nc(-c3ccc(NC(=O)OC(C)C)cc3)[nH]c2-c2ccnc(Br)c2)c1`, the GI50 in the test with SW-620 colon was 3.32 µM; with LOX IMVI melanoma, 1.49 µM; in the test on SK-MEL-28 melanoma it was 2.55 µM; in the test with CCRF-CEM leukemia it was 2.22 µM; in the test on DU-145 prostate, 3.33 µM; with SF-295 CNS, 0.256 µM. In addition, the GI50 in the test with HCT-15 colon was 1.19 µM; in the test on SK-OV-3 ovarian, 3.85 µM; in the test on NCI/ADR-RES ovarian, 2.85 µM; in the test on MCF7 breast it was 1.59 µM. In addition, the TGI was over 100 µM in the test on SW-620 colon; 3.36 µM with LOX IMVI melanoma; over 100 µM with SK-MEL-28 melanoma; over 100 µM with CCRF-CEM leukemia; over 100 µM in the test on DU-145 prostate; 0.64 µM in the test on SF-295 CNS. The TGI with HCT-15 colon is 4.79 µM; with SK-OV-3 ovarian it was over 100 µM; with NCI/ADR-RES ovarian, over 100 µM; in the test on MCF7 breast, 8.15 µM.
